We go through 1 compound from patent US5747488A, “2-aryl-5,11-dihydro-6H-dipyrido[3,2-B:2',3'-E][1, 4]diazepines and their use in the treatment of HIV infection” (Boehringer Ingelheim Pharmaceuticals, Inc., priority 1996, dated 1998).

Series [1] has as its target T1, HIV-1 reverse transcriptase, wild type (WT) (Human immunodeficiency virus type 1 (BRU ISOLATE), UniProt P03367).
T1 construct: recombinant clone pBRTprtl+ (vector pIBI21, lac promoter) in E. coli JM109
Briefly: Reverse transcriptase (RT) assay, wild type enzyme (RNA-dependent DNA polymerase activity). The format is biochemical, Human Immunodeficiency Virus (HIV-1), LAV strain. The following applies: read-out: RT (WT) Assay % inh. (1 μM). An excerpt:
Utilizing the Reverse Transcriptase (RT) Assay described below, compounds can be tested for their ability to inhibit the RNA-dependent DNA polymerase activity of HIV-1 RT. Certain specific compounds described in the Examples which appear below, were so tested.
Among the enzymes for which Human Immunodeficiency Virus (HIV-1) encodes is a reverse transcriptase (1), so-named because it transcribes a DNA copy from an RNA template. This activity can be quantitatively measured in a cell-free enzyme assay, which has been previously described (2), and is based upon the observation that reverse transcriptase is able to use a synthetic template [poly r(C) primed with oligo d(G)] to transcribe a radio-labelled, acid-precipitable DNA strand utilizing ^3 H-dGTP as a substrate. The assay described below utilizes the wild type (WT) enzyme, which is the predominant form of the enzyme observed in patients infected with HIV-1. Utilization of the mutant RT enzyme (Y181C, prepared by site-directed mutagenesis in which the tyrosine residue at codon 181 has been replaced by a cysteine residue) and analogous assay conditions allows compounds to be evaluated for their effectiveness at inhibiting this mutant enzyme. […]

A further series can be described thus: MTT assay (cytotoxicity). In kind it is cell-based. Particulars: human; H9 cells, five days. The method, then:
In order to roughly assess the cytotoxicity of the compounds provided by the invention, several such compounds were tested in the MTT Assay described below. Compounds having a relatively high CC50 are preferred.
The MTT [3-(4,5-dimethylthiazol-2-yl)-2,5 diphenyl tetrazolium bromide) assay is based on cleavage of tetrazolium bromide by metabolically active cells, resulting in a highly quantitative blue color. This assay has been previously described (1) but has been optimized for the purposes of the testing reported herein.
The H9 cell line (2), an established human lymphoma suspension cell line grown in RPMI 1640 supplemented with 10% fetal bovine serum, is used as the target cell line in the assay. Cells (100 μL) are plated in microtest plate wells at a concentration of 10^5 cells per mL in the presence of varying concentrations of inhibitor. The cells are incubated at 37° C. in a humidified CO2 incubator. Five days later, 20 μL of MTT (5 mg/mL in RPMI 1640, sonicated, 0.2 micron filtered, and stored at 4° C.) is added to each well. After 4 hours additional incubation at 37° C., 60 μL of Triton-X is added to each well and thoroughly mixed to aid the solubilization of the crystals. Absolute ethanol (5 μL) is added to each well and the resulting mixture is incubated for 30 minutes at 60° C. and immediately read on a plate reader (Dynatech) at a wavelength of 570 nm. […]

The structures appear in SMILES notation.

Regarding `CCN1c2ncccc2-c2ncc(C)n2-c2ccc(-c3cn[nH]c3)nc21` [Example 1, 8-Ethyl-1-methyl-10-(4-pyrazolyl)imidazo[2',3':6,5]dipyrido[3,2-b:2',3'-e][1,4]diazepine], the inhibition at 1 µM in series [1] came out at 95%. In “MTT assay (cytotoxicity)”, this compound returned a CC50 at 120 h of over 100 µM.
